Molecular target: T1, Human pyruvate kinase R (PKR) (Homo sapiens, UniProt P30613)
T1 construct: Human pyruvate kinase R (PKR), residues 14-574; 6x-His (N, cleaved yes); 8x-Arg (N, cleaved yes); SUMO (N, cleaved yes); host or cells: E. coli
Test: Biochemical assay for activation of pyruvate kinase R (Kinase-Glo luminescence measurement of ATP generation)
Conditions: for AC50: PKR biochemical assay, 0.1 nM PKR, 0.3 mM ADP, 2 mM FBP, 0.1 mM PEP; for Emax: maximal activation level relative to the activation level achieved by the literature compound AG-348 @ 10 μM
Procedure: Human pyruvate kinase R (PKR), residues 14-574, and human pyruvate kinase M2, residues 1-531, were cloned into expression plasmids and obtained from ATUM Bio (Newark, Calif.). Proteins were translated as fusions with 6×-His, 8×-Arg, and SUMO at the N-terminus. A third construct of human PKR was truncated, residues 50-574, and similarly cloned for use in crystallography experiments. All proteins were cloned, expressed in E. coli, and purified using similar protocols. Cells were grown at 30° C. in Luria-Bertani broth supplemented with 0.4% glucose to OD600=0.8 and induced with 0.4 mM IPTG at 16° C. for 18 hours. Cells were harvested by centrifugation, resuspended in 50 mM potassium phosphate pH 8.0, 500 mM NaCl, 25 mM imidazole pH 8.0, and 3 mM (3-mercaptoethanol. Cells were lysed using a LM20 microfluidizer from Microfluidics (Westwood, Mass.). The crude lysate was immediately supplemented with 0.2 mM phenylmethylsulfonyl fluoride (PMSF) and centrifuged at 20,000 g for 20 minutes. The soluble fraction was subsequently incubated with 2 mL Ni-NTA (GE Healthcare) per 1,000 ODs for 1 hour at 4° C. Following incubation with the Ni-NTA resin, lysate was removed by pelleting resin at 2,500 g for 3 minutes and washed 3 times with 9 bed volumes of 50 mM potassium phosphate pH 8.0, 500 mM NaCl, 25 mM imidazole, and 3 mM 3-mercaptoethanol. Following the batch wash Ni-NTA resin was loaded onto a gravity column and His-tagged protein was eluted with 6 bed volumes of 10 mM Tris/HCl pH 8.0, 200 mM NaCl, 500 mM imidazole, and 3 mM (3-mercaptoethanol. Eluted protein was dialyzed overnight against 10 mM Tris/HCl pH 8.0, 200 mM NaCl, and 1 mM DTT and the 6×-His-8×-Arg-SUMO-tag was cleaved using a 20:1 molar ratio of protein:3C protease. The protein was purified by anion exchange chromatography on a HiTrapQ or MonoQ 10/100 GL column (GE Healthcare) via a linear NaCl gradient and twice by size exclusion chromatography using a Superdex S200 26/60 column (GE Healthcare) run in 10 mM Tris/HCl pH 8.0, 200 mM NaCl, 10 mM MgCl2, 1 mM DTT. Proteins were concentrated to −12 mg/mL for crystallization and flash frozen for storage.
Biochemical Assay for Activation of Pyruvate Kinase R
Activation of pyruvate kinase R (PKR) and pyruvate kinase M2 (PKM2) were measured using a luminescence based measurement of ATP generation and the Kinase-Glo luminescent kinase reagent kit.

T1 sequence (P30613 14-574): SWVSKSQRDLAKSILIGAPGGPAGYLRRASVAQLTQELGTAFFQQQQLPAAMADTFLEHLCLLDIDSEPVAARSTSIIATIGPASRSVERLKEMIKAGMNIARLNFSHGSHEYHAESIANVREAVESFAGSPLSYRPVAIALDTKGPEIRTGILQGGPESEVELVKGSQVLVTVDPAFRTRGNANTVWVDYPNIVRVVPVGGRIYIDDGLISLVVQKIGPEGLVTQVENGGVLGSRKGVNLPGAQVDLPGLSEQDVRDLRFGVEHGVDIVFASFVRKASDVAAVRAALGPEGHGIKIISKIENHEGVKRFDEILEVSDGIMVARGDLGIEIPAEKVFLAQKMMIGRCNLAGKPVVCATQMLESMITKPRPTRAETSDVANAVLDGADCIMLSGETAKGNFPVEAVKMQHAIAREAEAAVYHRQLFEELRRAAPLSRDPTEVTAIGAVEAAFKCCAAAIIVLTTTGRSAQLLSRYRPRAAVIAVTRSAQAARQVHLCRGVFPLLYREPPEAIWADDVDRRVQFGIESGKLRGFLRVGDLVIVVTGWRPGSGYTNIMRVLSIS

Row | SMILES | AC50 | Emax
1 | Cn1ncc2cc(-n3ncnc3CNC(=O)NCc3ncnn3-c3ccc(Cl)c(F)c3)ccc21 [Compound 52, 1-{[1-(4-chloro-3-fluorophenyl)-1H-1,2,4-triazol-5-yl]methyl}-3-{[1-(1-methyl-1H-indazol-5-yl)-1H-1,2,4-triazol-5-yl]methyl}urea] | 24 nM | 37%
2 | Cc1nc(CN(C)C(=O)NCc2ncnn2-c2ccc3cccnc3c2)n(-c2ccc(Cl)c(F)c2)n1 [Compound 53, 1-{[1-(4-chloro-3-fluorophenyl)-3-methyl-1H-1,2,4-triazol-5-yl]methyl}-1-methyl-3-{[1-(quinolin-7-yl)-1H-1,2,4-triazol-5-yl]methyl}urea] | 120 nM | 73%
3 | Cc1nc(CNC(=O)N(C)Cc2ncnn2-c2ccc3cccnc3c2)n(-c2ccc(Cl)c(F)c2)n1 [Compound 54, 3-{[1-(4-chloro-3-fluorophenyl)-3-methyl-1H-1,2,4-triazol-5-yl]methyl}-1-methyl-1-{[1-(quinolin-7-yl)-1H-1,2,4-triazol-5-yl]methyl}urea] | 85 nM | 71%
4 | Cc1nc(CNC(=O)NCc2nc(C3CC3)nn2-c2ccc3cccnc3c2)n(-c2ccc(Cl)c(F)c2)n1 [Compound 55, 3-{[1-(4-chloro-3-fluorophenyl)-3-methyl-1H-1,2,4-triazol-5-yl]methyl}-1-{[3-cyclopropyl-1-(quinolin-7-yl)-1H-1,2,4-triazol-5-yl]methyl}urea] | 79 nM | 90%
5 | O=C(NCc1nnnn1-c1ccc(F)c(F)c1)NCc1nnnn1-c1ccc(F)c(F)c1 [Compound 56, 1,3-bis({[1-(3,4-difluorophenyl)-1H-1,2,3,4-tetrazol-5-yl]methyl})urea] | 1100 nM | 106%
6 | Cc1ccc(-n2ncnc2CNC(=O)NCc2ncnn2-c2ccc(C)c(C)c2)cc1C [Compound 57, 1,3-bis({[1-(3,4-dimethylphenyl)-1H-1,2,4-triazol-5-yl]methyl})urea] | 64 nM | 87%
7 | Cc1ccc(-n2nnnc2CNC(=O)NCc2nnnn2-c2ccc(C)c(F)c2)cc1F [Compound 58, 1,3-bis({[1-(3-fluoro-4-methylphenyl)-1H-1,2,3,4-tetrazol-5-yl]methyl})urea] | 220 nM | 88%
8 | Cc1cc(-n2nnnc2CNC(=O)NCc2nnnn2-c2ccc(Cl)c(C)c2)ccc1Cl [Compound 59, 1,3-bis({[1-(4-chloro-3-methylphenyl)-1H-1,2,3,4-tetrazol-5-yl]methyl})urea] | 1200 nM | 86%
9 | O=C(NCc1nnnn1-c1ccc(Cl)c(Cl)c1)NCc1nnnn1-c1ccc(Cl)c(Cl)c1 [Compound 60, 1,3-bis({[1-(3,4-dichlorophenyl)-1H-1,2,3,4-tetrazol-5-yl]methyl})urea] | 180 nM | 82%
10 | O=C(NCc1ncnn1-c1ccc(Cl)cc1)NCc1ncnn1-c1ccc(Cl)cc1 [Compound 61, 1,3-bis({[1-(4-chlorophenyl)-1H-1,2,4-triazol-5-yl]methyl})urea] | 11 nM | 36%
11 | Cc1cc(-n2nnnc2CNC(=O)NCc2nnnn2-c2ccc(F)c(C)c2)ccc1F [Compound 62, 1,3-bis({[1-(4-fluoro-3-methylphenyl)-1H-1,2,3,4-tetrazol-5-yl]methyl})urea] | 210 nM | 66%
12 | O=C(NCc1nnnn1-c1ccc(Cl)c(F)c1)NCc1nnnn1-c1ccc(Cl)c(F)c1 [Compound 63, 1,3-bis({[1-(4-chloro-3-fluorophenyl)-1H-1,2,3,4-tetrazol-5-yl]methyl})urea] | 63 nM | 99%
13 | O=C(NCc1ncnn1-c1ccc(F)c(Cl)c1)NCc1ncnn1-c1ccc(F)c(Cl)c1 [Compound 64, 1,3-bis({[1-(3-chloro-4-fluorophenyl)-1H-1,2,4-triazol-5-yl]methyl})urea] | 120 nM | 46%
14 | COc1ccc(-n2ncnc2CNC(=O)NCc2ncnn2-c2ccc(OC)cc2)cc1 [Compound 65, 1,3-bis({[1-(4-methoxyphenyl)-1H-1,2,4-triazol-5-yl]methyl})urea] | 1800 nM | 62%
15 | O=C(NCc1ncnn1-c1ccc(Cl)c(F)c1)NCc1ncnn1-c1ccc(Cl)c(F)c1 [Compound 66, 1,3-bis({[1-(4-chloro-3-fluorophenyl)-1H-1,2,4-triazol-5-yl]methyl})urea] | 13 nM | 41%
16 | Cc1ccc(-n2ncnc2CNC(=O)NCc2ncnn2-c2ccc(C)c(F)c2)cc1F [Compound 67, 1,3-bis({[1-(3-fluoro-4-methylphenyl)-1H-1,2,4-triazol-5-yl]methyl})urea] | 44 nM | 58%
17 | O=C(NCc1ncnn1-c1cc(F)cc(Cl)c1)NCc1ncnn1-c1cc(F)cc(Cl)c1 [Compound 68, 1,3-bis({[1-(3-chloro-5-fluorophenyl)-1H-1,2,4-triazol-5-yl]methyl})urea] | 3100 nM | 65%
18 | COc1ccc(-n2nnnc2CNC(=O)NCc2nnnn2-c2ccc(OC)cc2)cc1 [Compound 69, 1,3-bis({[1-(4-methoxyphenyl)-1H-1,2,3,4-tetrazol-5-yl]methyl})urea] | 540 nM | 92%
19 | O=C(NCc1nnnn1-c1ccc(F)c(Cl)c1)NCc1nnnn1-c1ccc(F)c(Cl)c1 [Compound 70, 1,3-bis({[1-(3-chloro-4-fluorophenyl)-1H-1,2,3,4-tetrazol-5-yl]methyl})urea] | 110 nM | 64%
20 | O=C(NCc1ncnn1-c1ccc2ncccc2c1)NCc1ncnn1-c1ccc2ncccc2c1 [Compound 71, 1,3-bis({[1-(quinolin-6-yl)-1H-1,2,4-triazol-5-yl]methyl})urea] | 930 nM | 48%
21 | Cc1ccc(-n2nnnc2CNC(=O)NCc2nnnn2C2CCCCC2)cc1C [Compound 72, 1-[(1-cyclohexyl-1H-1,2,3,4-tetrazol-5-yl)methyl]-3-{[1-(3,4-dimethylphenyl)-1H-1,2,3,4-tetrazol-5-yl]methyl}urea] | 1800 nM | 68%
22 | Cc1nc(CNC(=O)NCc2nc(C)nn2-c2ccc(Cl)cc2)n(-c2ccc(Cl)cc2)n1 [Compound 73, 1,3-bis({[1-(4-chlorophenyl)-3-methyl-1H-1,2,4-triazol-5-yl]methyl})urea] | 190 nM | 107%
23 | Cc1ccc(-n2ncnc2CNC(=O)NCc2ncnn2-c2ccc(C)nc2)cn1 [Compound 74, 1,3-bis({[1-(6-methylpyridin-3-yl)-1H-1,2,4-triazol-5-yl]methyl})urea] | 2800 nM | 36%
24 | O=C(NCc1ncnn1-c1ccc(Cl)c(F)c1)NCc1ncnn1-c1ccc2cccnc2c1 [Compound 75, 1-{[1-(4-chloro-3-fluorophenyl)-1H-1,2,4-triazol-5-yl]methyl}-3-{[1-(quinolin-7-yl)-1H-1,2,4-triazol-5-yl]methyl}urea] | 33 nM | 47%
25 | O=C(NCc1ncnn1-c1ccc(Cl)c(F)c1)NCc1nnnn1-c1ccc2c(c1)OC(F)(F)O2 [Compound 76, 1-{[1-(4-chloro-3-fluorophenyl)-1H-1,2,4-triazol-5-yl]methyl}-3-{[1-(2,2-difluoro-2H-1,3-benzodioxol-5-yl)-1H-1,2,3,4-tetrazol-5-yl]methyl}urea] | 460 nM | 74%
26 | Cc1nc(CNC(=O)NCc2nc(C)nn2-c2ccc(Cl)c(F)c2)n(-c2ccc(Cl)c(F)c2)n1 [Compound 77, 1,3-bis({[1-(4-chloro-3-fluorophenyl)-3-methyl-1H-1,2,4-triazol-5-yl]methyl})urea] | 51 nM | 93%
27 | Cc1nc(CNC(=O)N(C)Cc2nc(C)nn2-c2ccc(Cl)c(F)c2)n(-c2ccc(Cl)c(F)c2)n1 [Compound 78, 1,3-bis({[1-(4-chloro-3-fluorophenyl)-3-methyl-1H-1,2,4-triazol-5-yl]methyl})-1-methylurea] | 110 nM | 88%
28 | Cc1ccc(-n2ncnc2CN(C)C(=O)NCc2nc(C)nn2-c2ccc(Cl)c(F)c2)cn1 [Compound 79, 3-{[1-(4-chloro-3-fluorophenyl)-3-methyl-1H-1,2,4-triazol-5-yl]methyl}-1-methyl-1-{[1-(6-methylpyridin-3-yl)-1H-1,2,4-triazol-5-yl]methyl}urea] | 160 nM | 53%

Source: patent US20230278984A1 (Global Blood Therapeutics, Inc., priority 2020, published 2023)
